Experimental findings from ChEMBL document CHEMBL4419173, “Small-molecule inhibitors targeting g-protein-coupled rho guanine nucleotide exchange factors” (2014) are described below.

What is called inhibition is the share of the control response that was lost under treatment. What is called IC50 is the concentration that gives 50% inhibition.

For assay [1], the target named is Rho GEF 12/Transforming protein RhoA (Homo sapiens) (UniProt P61586+Q9NZN5). The experiment in a line: Inhibition of His6-tagged human LARG PH-DH domain expressed in mouse NIH/3T3 cells assessed as reduction in human full length GST-tagged RhoA (1 to 193 residues) interaction with LARG RhoGEF at 100 uM incubated for 1 hr by Western blot analysis relative to Y16. Type of assay: cell-based.

The species named for assay [2] is Mus musculus. The experiment in a line: Inhibition of RhoGEF in mouse NIH/3T3 cells assessed as inhibition of 10% calf serum-induced Cdc42-GTP formation by measuring relative Cdc42-GTP level at 50 uM incubated for 24 hrs by densitometry (reference value: 1). It counts as cell-based.
The subject of assay [3] is MCF7. The experiment in a line: Inhibition of RhoGEF in human MCF7 cells derived mammospheres assessed as inhibition of RhoA-mediated phospho-MLC formation incubated for 24 hrs by densitometry. Type of assay: cell-based.
Assay [4] concerns MCF7. As to the kind of experiment: Inhibition of RhoGEF in human MCF7 cells derived mammospheres assessed as inhibition of 10% calf serum-induced RhoA-GTP formation by measuring relative RhoA-GTP level incubated for 24 hrs by densitometry (reference value: 1). Type of assay: cell-based.
Assay [5] has as its target T1, RhoGEF 1/Transforming protein RhoA (Homo sapiens) (UniProt P61586+Q92888). The experiment in a line: Binding affinity to human LARG (765 to 1138 residues) DH-PH module expressed in mouse NIH/3T3 cells assessed as reduction in LARG binding to human full length RhoA (1 to 193 residues) by measuring relative LARG binding level at 5 uM pull-down assay (reference value: 1 No unit). Type of assay: cell-based.

The species entered for assay [6] is Mus musculus. As to the kind of experiment: Inhibition of RhoGEF in mouse NIH/3T3 cells assessed as inhibition of 10% calf serum-induced RhoA-GTP formation by measuring reduction in RhoA-GTP level at 30 uM incubated for 24 hrs by densitometry relative to control. It counts as cell-based.
In assay [7] the target is T1, RhoGEF 1/Transforming protein RhoA (Homo sapiens). The experiment in a line: Binding affinity to human LARG (765 to 1138 residues) DH-PH module expressed in mouse NIH/3T3 cells assessed as reduction in LARG binding to human full length RhoA (1 to 193 residues) by measuring relative LARG binding level at 30 uM pull-down assay (reference value: 1 No unit). It counts as cell-based.

Assay [8] has as its system MCF7. As to the kind of experiment: Inhibition of RhoGEF in human MCF7 cells derived mammospheres assessed as inhibition of 10% calf serum-induced RhoA-GTP formation by measuring relative RhoA-GTP level at 10 uM incubated for 24 hrs by densitometry (reference value: 1). It counts as cell-based.
The test system of assay [9] is MCF7. The experiment in a line: Inhibition of RhoGEF in human MCF7 cells derived mammospheres assessed as inhibition of RhoA-mediated phospho-MLC formation at 10 uM incubated for 24 hrs by densitometry. It counts as cell-based.
For assay [10], the target named is T2, Rho guanine nucleotide exchange factor 12 (Homo sapiens, UniProt Q9NZN5). The experiment in a line: Inhibition of human LARG (765 to 1138 residues) RhoGEF binding to human full length RhoA (1 to 193 residues).
T2 sequence (Q9NZN5 whole entry, the tested form may be a part): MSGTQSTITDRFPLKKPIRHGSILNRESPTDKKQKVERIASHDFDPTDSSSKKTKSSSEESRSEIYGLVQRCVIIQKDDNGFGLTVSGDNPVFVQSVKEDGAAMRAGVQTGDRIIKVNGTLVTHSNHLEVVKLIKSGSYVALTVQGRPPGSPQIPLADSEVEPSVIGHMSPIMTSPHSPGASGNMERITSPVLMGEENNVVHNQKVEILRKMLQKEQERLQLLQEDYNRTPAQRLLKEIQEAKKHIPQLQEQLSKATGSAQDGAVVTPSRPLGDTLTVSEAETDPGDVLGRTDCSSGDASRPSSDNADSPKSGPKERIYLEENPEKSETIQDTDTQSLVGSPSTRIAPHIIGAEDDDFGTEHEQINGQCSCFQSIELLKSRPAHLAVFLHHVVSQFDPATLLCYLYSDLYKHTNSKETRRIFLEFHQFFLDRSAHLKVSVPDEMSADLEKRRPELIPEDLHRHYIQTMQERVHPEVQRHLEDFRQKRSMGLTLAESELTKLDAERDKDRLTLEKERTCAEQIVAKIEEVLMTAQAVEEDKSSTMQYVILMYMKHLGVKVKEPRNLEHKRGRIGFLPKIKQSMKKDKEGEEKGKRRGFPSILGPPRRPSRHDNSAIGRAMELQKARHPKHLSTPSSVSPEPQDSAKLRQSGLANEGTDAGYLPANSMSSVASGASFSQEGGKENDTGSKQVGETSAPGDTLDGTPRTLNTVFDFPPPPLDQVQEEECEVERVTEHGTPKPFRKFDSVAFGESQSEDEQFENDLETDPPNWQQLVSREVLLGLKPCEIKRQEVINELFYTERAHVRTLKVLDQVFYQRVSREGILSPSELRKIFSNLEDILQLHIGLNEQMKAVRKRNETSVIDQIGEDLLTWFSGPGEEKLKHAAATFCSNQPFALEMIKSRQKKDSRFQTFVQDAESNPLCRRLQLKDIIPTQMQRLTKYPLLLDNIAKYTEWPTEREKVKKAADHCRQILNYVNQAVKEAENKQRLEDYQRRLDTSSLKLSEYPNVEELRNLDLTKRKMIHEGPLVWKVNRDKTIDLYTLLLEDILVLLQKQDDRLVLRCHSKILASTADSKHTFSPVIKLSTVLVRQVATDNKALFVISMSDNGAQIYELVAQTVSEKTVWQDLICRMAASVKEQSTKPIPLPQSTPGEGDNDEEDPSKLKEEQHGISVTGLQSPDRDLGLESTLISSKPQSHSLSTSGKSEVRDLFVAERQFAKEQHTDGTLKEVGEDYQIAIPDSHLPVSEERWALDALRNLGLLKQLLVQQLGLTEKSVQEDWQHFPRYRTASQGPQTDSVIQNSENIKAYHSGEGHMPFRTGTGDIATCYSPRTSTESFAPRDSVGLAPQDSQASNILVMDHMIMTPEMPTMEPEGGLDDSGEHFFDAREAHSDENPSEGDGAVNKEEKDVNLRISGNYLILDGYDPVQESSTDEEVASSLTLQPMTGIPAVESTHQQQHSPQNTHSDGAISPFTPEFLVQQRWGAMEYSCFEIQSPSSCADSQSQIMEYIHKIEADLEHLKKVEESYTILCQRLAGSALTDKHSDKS
The species entered for assay [11] is Mus musculus. As to the kind of experiment: Inhibition of RhoGEF in mouse NIH/3T3 cells assessed as inhibition of 10% calf serum-induced RhoA-GTP formation by measuring relative RhoA-GTP level at 30 uM incubated for 24 hrs by densitometry (reference value: 1). It counts as cell-based.
For assay [12], the species on record is Mus musculus. The experiment in a line: Inhibition of RhoGEF in mouse NIH/3T3 cells assessed as inhibition of 10% calf serum-induced Rac1-GTP formation by measuring relative Rac1-GTP level at 50 uM incubated for 24 hrs by densitometry (reference value: 1). Type of assay: cell-based.
In assay [13] the test system is MCF7. As to the kind of experiment: Inhibition of RhoGEF in human MCF7 cells derived mammospheres assessed as inhibition of 10% calf serum-induced RhoA-GTP formation at 10 uM incubated for 24 hrs by densitometry relative to control. It counts as cell-based.
For assay [14], the target named is T1, RhoGEF 1/Transforming protein RhoA (Homo sapiens). The experiment in a line: Binding affinity to human LARG (765 to 1138 residues) DH-PH module expressed in mouse NIH/3T3 cells assessed as reduction in LARG binding to human full length RhoA (1 to 193 residues) by measuring relative LARG binding level at 10 uM pull-down assay (reference value: 1 No unit). It counts as cell-based.

Assay [15] deals with MCF7. The experiment in a line: Inhibition of cell invasion of human MCF7 cells at 10 to 50 uM by Matrigel-coated transwell based assay. Type of assay: functional.
In assay [16] the test system is MCF7. The experiment in a line: Inhibition of cell migration of human MCF7 cells at 10 to 50 uM. It counts as functional, cell-based.
Assay [17] concerns MCF7. As to the kind of experiment: Growth inhibition of human MCF7 cells at 5 to 50 uM. It counts as functional, cell-based.
Assay [18] is filed under the species Mus musculus. The experiment in a line: Inhibition of RhoGEF in mouse NIH/3T3 cells assessed as reduction in 10% calf serum-induced rhoA-mediated actin stress fiber formation at 10 uM by rhodamine-phalloidin staining based assay. It counts as cell-based.
For assay [19], the system named is MCF7. The experiment in a line: Inhibition of RhoGEF in human MCF7 cells derived mammospheres assessed as inhibition of 10% calf serum-induced RhoA-GTP formation by measuring relative RhoA-GTP level at 5 uM incubated for 24 hrs by densitometry (reference value: 1). Type of assay: cell-based.
For assay [20], the target named is T1, RhoGEF 1/Transforming protein RhoA (Homo sapiens). As to the kind of experiment: Binding affinity to human LARG (765 to 1138 residues) DH-PH module expressed in mouse NIH/3T3 cells assessed as reduction in LARG binding to human full length RhoA (1 to 193 residues) by measuring relative LARG binding level at 50 uM pull-down assay (reference value: 1 No unit). Type of assay: cell-based.

The species named for assay [21] is Mus musculus. The experiment in a line: Inhibition of RhoGEF in mouse NIH/3T3 cells assessed as inhibition of 10% calf serum-induced RhoA-GTP formation by measuring relative RhoA-GTP level at 10 uM incubated for 24 hrs by densitometry (reference value: 1). It counts as cell-based.
Assay [22] concerns MCF7. As to the kind of experiment: Inhibition of RhoGEF in human MCF7 cells derived mammospheres assessed as inhibition of 10% calf serum-induced RhoA-GTP formation by measuring relative RhoA-GTP level at 30 uM incubated for 24 hrs by densitometry (reference value: 1). It counts as cell-based.
The species named for assay [23] is Mus musculus. The experiment in a line: Inhibition of RhoGEF in mouse NIH/3T3 cells assessed as inhibition of 10% calf serum-induced RhoA-GTP formation by measuring relative RhoA-GTP level at 50 uM incubated for 24 hrs by densitometry (reference value: 1). Type of assay: cell-based.
The target in assay [24] is T2, Rho guanine nucleotide exchange factor 12. The experiment in a line: Inhibition of human LARG (765 to 1138 residues) RhoGEF-catalyzed guanine nucleotide-exchange reaction of human full length RhoA (1 to 193 residues) by measuring inhibition of FL-GDP dissociation from RhoA by BODIPY-fluorescein(FL)-GDP nucleotide based assay.
The target is the same in assay [25]. The experiment in a line: Inhibition of human LARG (765 to 1138 residues) RhoGEF-catalyzed guanine nucleotide-exchange reaction of human full length RhoA (1 to 193 residues) by measuring inhibition of TR-GTP association to RhoA by BODIPY-Texas Red(TR)-GTP nucleotide based assay.

The source made the active and inactive calls. The calls are words filed in the database; no cut-off is given here.

For the compound `COc1cc(/C=C2/C(=O)NN(c3ccccc3)C2=O)ccc1O`, in assay [1], the inhibition amounted to 13%.

Take `O=C1/C(=C\c2ccccc2OCc2ccccc2)CNN1c1ccc(Br)cc1`: the inhibition in assay [1] turned out to be 7.34%.

As for `COc1cc(/C=C2/C(=O)NN(c3ccccc3)C2=O)cc(Br)c1OCCOc1ccc(C)cc1`, the inhibition in assay [1] came out at 13.8%.

As to `O=C1NN(c2ccccc2)C(=O)/C1=C/c1ccc(OCc2ccccc2)cc1`, the inhibition in assay [1] was determined as 27.1%.

On to `N[C@H](Cc1c[nH]c2ccccc12)C(=O)N/N=C/c1ccc2nccnc2c1`, for which the fold change (FC) was 0.96 in the assay listed under Mus musculus [2]; 0.92 in assay [5]; 0.45 in [7]; 0.65 in the assay with MCF7 [8]; 0.38 in the assay filed under Mus musculus [11]; 0.89 in the assay filed under Mus musculus [12]. Besides, the fold change (FC) in assay [14] amounted to 0.63; with MCF7 [19], 0.98; in [20], 0.15; in the assay filed under Mus musculus [21], 0.7; in the assay with MCF7 [22] it was 0.32; in the assay filed under Mus musculus [23] it was 0.19. Moreover, the inhibition result in the assay with MCF7 [3] is “Dose-dependent effect”; in the assay on MCF7 [4], “Dose-dependent effect”; in the assay listed under Mus musculus [6] it was 80%; in the assay with MCF7 [9] it was 50%; in the assay on MCF7 [13], 50%. For the same compound, the IC50 in [10] is 10 µM. In addition, the inhibition result in the assay on MCF7 [15], in the assay with MCF7 [16] and in the assay listed under Mus musculus [18] was “Active” each time. Also, in the assay on MCF7 [17], the “growth inhibition (GI)” value was “Active”.

In the case of `O=C(O)C1Nc2c(Cl)cc(Cl)cc2C2C=CCC12` (centres undefined), the inhibition entry in assay [24] and in assay [25] was “Dose-dependent effect” throughout.

As to `O=C1NN(c2ccccc2)C(=O)/C1=C\C1=NCc2ccccc21`, in assay [1], the inhibition was 6.57%.
